Values belong to the compound of their own block, whether it stands above or below them. Activity calls are given as the source filed them.
Assays:
Type in all cases: functional
Aurora kinase A = Aurora kinase A (Homo sapiens, UniProt O14965);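 note: value from the Navigating the Kinome kinase panel profiling, panel entry STK6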
[1] = target: High affinity nerve growth factor receptor (Homo sapiens, UniProt P04629);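 note: NTRK1 tested as one member of a kinome-wide profiling panel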
[2] = target: Vascular endothelial growth factor receptor 2 (Homo sapiens, UniProt P35968)
Vascular endothelial growth factor receptor 2, sequence (P35968 whole entry): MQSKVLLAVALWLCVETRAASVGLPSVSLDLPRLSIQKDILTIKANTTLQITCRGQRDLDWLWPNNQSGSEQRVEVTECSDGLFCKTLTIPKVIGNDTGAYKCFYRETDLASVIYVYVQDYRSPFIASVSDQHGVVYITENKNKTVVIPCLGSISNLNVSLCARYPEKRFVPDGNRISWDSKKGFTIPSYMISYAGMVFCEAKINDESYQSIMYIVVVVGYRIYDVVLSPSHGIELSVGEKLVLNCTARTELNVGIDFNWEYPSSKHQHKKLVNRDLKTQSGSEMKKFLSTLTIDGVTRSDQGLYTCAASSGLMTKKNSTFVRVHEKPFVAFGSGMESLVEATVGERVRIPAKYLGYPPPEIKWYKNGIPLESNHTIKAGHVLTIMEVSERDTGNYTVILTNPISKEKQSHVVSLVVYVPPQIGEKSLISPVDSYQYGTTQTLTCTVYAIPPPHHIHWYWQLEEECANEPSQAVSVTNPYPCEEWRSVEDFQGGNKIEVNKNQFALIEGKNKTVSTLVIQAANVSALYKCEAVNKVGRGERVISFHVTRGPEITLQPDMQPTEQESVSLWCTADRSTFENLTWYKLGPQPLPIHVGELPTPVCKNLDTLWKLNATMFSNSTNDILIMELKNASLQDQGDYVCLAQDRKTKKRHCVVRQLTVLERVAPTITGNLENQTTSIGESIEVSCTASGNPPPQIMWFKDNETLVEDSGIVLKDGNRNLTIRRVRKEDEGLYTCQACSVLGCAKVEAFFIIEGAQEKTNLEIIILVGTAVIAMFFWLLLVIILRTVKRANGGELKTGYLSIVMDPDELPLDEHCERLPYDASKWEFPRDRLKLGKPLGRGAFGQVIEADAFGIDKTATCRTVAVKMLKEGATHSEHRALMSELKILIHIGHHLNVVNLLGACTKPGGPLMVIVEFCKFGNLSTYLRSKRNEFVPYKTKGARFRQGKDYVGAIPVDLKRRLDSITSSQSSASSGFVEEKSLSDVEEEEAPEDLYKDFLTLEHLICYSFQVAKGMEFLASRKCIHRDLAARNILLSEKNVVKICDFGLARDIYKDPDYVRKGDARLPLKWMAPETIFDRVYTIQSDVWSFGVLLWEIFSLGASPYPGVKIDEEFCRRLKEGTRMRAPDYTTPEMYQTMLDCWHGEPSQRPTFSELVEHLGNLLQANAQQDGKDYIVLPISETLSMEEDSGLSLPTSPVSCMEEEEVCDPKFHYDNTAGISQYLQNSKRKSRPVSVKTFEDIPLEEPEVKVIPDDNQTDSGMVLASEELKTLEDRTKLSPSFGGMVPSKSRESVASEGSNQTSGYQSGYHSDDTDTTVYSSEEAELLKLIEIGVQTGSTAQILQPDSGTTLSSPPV

Aurora kinase B = Aurora kinase B (Homo sapiens, UniProt Q96GD4)
Aurora kinase B, sequence (Q96GD4 whole entry): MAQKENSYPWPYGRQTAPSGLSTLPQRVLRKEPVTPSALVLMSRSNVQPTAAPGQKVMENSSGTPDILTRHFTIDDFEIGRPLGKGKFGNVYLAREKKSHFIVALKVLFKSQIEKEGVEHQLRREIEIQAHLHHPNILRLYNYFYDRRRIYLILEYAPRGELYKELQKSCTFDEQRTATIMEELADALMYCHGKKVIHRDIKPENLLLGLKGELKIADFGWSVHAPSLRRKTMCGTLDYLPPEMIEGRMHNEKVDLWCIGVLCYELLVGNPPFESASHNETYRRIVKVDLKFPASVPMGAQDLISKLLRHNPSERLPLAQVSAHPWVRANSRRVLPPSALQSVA

[3] = target: T1, High affinity choline transporter 1 (Homo sapiens, UniProt Q9GZV3); assay: CHT activators, dose response, cell-based, 10-point CRC, membrane potential dye (AID 602376)
T1 sequence (Q9GZV3 whole entry): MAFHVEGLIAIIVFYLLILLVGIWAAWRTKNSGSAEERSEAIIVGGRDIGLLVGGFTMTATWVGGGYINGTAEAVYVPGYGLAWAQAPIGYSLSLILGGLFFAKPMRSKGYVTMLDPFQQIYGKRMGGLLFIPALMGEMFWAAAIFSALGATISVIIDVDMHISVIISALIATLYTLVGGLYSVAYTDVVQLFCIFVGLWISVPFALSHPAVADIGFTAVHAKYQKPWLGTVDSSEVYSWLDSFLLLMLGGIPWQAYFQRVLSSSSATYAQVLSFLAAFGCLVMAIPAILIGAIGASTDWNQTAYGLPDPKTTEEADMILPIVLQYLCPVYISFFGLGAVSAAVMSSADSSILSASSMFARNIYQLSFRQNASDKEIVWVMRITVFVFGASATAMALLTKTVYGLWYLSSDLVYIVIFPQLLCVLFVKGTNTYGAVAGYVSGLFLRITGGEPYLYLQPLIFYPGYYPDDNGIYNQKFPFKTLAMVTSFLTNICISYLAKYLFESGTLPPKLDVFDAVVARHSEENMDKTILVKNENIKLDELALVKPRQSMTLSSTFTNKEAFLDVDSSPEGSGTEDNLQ

[4] = viability loss in Mcl1-dependent HMC-1-8 cells, dose response, selectivity assay for A1 inhibitor project, cell-based, luminescence, dry powder (AID 504415); conditions: Homo sapiens
[5] = target: T2, Sentrin-specific protease 8 (Homo sapiens, UniProt Q96LD8); assay: SENP8 protease inhibitors, SAR follow-up, biochemical, luminescence (AID 504501)
T2 sequence (Q96LD8 whole entry): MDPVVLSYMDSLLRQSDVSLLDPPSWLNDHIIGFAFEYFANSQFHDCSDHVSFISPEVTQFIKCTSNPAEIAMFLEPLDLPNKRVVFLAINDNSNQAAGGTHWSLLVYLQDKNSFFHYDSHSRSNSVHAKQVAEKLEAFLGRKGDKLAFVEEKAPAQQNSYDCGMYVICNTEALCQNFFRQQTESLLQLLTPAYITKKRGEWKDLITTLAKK

Caspase-3 = target: T3, Caspase-3 (Homo sapiens, UniProt P42574); assay: SAR Analysis of small molecule inhibitors of Sentrin-specific proteases (SENPs) using a Caspase-3 Selectivity assay. [Related pubchem assays (depositor defined):AID2540, AID2599, AID434973, AID489001]
T3 sequence (P42574 whole entry): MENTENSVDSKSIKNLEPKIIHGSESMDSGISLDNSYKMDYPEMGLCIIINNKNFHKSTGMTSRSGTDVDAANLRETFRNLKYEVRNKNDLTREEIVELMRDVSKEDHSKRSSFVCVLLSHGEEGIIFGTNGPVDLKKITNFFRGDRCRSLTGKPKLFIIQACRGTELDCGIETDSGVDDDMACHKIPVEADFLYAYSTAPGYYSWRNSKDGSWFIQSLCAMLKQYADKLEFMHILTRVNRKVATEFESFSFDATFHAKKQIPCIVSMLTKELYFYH

[6] = target: T4, Sentrin-specific protease 6 (Homo sapiens, UniProt Q9GZR1); assay: SAR Analysis of small molecule inhibitors of Sentrin-specific protease 6 (SENP6) using a Luminescent assay. [Related pubchem assays (depositor defined):AID2582, AID2599]
T4 sequence (Q9GZR1 whole entry): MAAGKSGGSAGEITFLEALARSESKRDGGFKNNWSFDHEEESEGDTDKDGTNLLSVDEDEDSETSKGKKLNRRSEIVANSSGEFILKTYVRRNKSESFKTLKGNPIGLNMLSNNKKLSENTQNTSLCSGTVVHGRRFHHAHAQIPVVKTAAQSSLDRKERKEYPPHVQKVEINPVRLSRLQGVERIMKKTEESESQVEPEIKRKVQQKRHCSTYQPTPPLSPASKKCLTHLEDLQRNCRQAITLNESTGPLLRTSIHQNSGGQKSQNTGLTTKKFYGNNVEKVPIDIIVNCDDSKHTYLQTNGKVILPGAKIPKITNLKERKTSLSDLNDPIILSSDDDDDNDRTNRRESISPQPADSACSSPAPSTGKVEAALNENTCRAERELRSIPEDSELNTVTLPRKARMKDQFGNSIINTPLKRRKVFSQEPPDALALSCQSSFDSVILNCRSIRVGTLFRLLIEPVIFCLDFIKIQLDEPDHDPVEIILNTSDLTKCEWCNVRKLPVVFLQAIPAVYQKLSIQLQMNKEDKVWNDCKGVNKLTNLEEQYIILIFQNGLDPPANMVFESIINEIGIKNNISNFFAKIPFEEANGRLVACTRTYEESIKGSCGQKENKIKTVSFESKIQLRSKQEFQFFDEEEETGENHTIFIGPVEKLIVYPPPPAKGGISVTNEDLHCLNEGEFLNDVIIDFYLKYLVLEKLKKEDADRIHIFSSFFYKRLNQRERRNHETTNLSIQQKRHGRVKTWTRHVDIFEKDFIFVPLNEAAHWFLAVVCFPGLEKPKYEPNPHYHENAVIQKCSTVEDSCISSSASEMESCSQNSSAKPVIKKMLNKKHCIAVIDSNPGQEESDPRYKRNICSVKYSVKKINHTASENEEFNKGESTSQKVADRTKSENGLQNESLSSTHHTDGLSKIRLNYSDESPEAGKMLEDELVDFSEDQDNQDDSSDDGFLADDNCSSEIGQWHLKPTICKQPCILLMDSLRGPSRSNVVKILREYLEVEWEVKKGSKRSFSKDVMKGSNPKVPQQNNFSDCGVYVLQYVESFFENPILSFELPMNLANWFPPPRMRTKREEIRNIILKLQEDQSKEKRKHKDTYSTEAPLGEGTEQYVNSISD

[7] = target: T5, Sentrin-specific protease 7 (Homo sapiens, UniProt Q9BQF6); assay: SENP7 protease inhibitors, SAR follow-up, biochemical, luminescence (AID 504497)
T5 sequence (Q9BQF6 whole entry): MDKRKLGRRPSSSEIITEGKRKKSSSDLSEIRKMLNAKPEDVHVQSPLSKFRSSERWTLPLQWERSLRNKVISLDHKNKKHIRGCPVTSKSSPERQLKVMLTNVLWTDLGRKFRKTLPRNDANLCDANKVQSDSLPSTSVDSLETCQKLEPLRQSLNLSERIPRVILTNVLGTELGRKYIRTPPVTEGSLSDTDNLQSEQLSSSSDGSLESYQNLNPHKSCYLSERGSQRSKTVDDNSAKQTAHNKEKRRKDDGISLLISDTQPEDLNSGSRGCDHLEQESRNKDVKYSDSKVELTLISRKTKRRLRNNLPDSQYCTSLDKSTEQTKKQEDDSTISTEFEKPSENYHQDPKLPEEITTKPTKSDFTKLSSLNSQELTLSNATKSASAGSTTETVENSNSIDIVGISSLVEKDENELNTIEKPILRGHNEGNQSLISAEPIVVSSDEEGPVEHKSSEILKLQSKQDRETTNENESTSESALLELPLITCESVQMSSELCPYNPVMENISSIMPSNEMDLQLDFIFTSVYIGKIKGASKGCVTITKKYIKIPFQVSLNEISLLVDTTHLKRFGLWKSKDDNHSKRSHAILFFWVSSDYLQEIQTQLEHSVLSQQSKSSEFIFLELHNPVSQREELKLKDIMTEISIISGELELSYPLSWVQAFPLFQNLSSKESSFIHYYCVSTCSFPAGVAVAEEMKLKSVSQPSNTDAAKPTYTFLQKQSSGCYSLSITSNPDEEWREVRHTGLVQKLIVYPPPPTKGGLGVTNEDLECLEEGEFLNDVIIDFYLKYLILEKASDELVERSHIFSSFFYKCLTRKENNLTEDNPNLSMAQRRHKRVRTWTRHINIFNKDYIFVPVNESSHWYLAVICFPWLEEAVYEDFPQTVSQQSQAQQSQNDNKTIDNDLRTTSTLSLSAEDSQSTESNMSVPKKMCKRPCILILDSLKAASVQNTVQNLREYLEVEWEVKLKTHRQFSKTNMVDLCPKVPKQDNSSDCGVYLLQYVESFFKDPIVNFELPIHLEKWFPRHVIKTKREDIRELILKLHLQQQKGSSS

Aurora kinase A, sequence (O14965 whole entry): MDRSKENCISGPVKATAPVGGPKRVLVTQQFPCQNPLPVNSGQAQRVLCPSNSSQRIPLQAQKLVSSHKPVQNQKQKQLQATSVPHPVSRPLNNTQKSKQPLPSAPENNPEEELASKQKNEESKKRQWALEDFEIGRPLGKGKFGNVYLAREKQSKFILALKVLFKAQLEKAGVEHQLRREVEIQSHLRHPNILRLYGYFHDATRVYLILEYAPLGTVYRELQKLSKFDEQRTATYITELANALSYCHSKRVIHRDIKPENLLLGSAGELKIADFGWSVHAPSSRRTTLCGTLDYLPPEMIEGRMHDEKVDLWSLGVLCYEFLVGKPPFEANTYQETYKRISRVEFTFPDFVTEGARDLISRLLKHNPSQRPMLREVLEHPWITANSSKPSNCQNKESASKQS
High affinity nerve growth factor receptor, sequence (P04629 whole entry): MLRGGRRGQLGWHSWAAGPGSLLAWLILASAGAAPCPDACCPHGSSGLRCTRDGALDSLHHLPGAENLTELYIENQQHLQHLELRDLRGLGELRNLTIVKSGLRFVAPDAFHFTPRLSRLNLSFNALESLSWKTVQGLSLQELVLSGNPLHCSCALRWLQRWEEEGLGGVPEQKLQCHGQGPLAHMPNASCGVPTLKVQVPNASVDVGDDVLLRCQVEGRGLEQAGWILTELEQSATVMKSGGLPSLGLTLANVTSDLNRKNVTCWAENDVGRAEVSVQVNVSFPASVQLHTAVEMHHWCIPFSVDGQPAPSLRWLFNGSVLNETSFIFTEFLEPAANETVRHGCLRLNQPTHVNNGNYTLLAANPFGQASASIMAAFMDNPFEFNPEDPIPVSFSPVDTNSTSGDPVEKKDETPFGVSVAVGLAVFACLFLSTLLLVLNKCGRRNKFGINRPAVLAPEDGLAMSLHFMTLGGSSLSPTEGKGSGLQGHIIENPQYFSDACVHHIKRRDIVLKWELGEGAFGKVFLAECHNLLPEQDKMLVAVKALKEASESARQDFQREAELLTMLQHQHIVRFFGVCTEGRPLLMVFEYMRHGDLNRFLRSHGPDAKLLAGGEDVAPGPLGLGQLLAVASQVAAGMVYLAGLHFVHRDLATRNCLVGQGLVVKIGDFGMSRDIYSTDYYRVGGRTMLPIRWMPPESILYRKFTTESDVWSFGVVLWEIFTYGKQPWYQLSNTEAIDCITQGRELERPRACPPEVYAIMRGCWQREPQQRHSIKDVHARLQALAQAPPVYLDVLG

Ki (Aurora kinase A): 0.794 µM (active) | Ki [1]: 3.98 µM (active) | Ki [2]: 1.26 µM (active) | Ki (Aurora kinase B): 0.000794 µM (active)
SMILES: CCS(=O)(=O)c1ccc(-c2ccc(-c3n[nH]c4c3Cc3cc(O)c(OC)cc3-4)cc2)cc1

SMILES: CC(C)C(=O)N1CCN(c2ccccc2NC(=O)c2ccc(C#N)cc2F)CC1
EC50 [3]: 12.9 µM (active)

SMILES: Cn1c(=O)c([N+](=O)[O-])c(Nc2ccc(Cl)cc2)c2ccccc21
AC50 [4]: > 350 µM (inactive)

IC50 (Caspase-3): > 99 µM (inactive) | IC50 [6]: > 99 µM (inactive) | IC50 [7]: > 99 µM (inactive)
SMILES: CC(C)(C)CC(=O)Nc1ccc(-c2nc3cc(Cl)ccc3s2)cc1
IC50 [5]: > 99 µM (inactive)

From ChEMBL document CHEMBL1201862, “PubChem BioAssay data set” (2004)
